The text below walks through data of US20210038607A1, “OXADIAZOLYLTHIOPHENE DERIVATIVES USEFUL AS HISTONE DEACETYLASE INHIBITORS” (Karus Therapeutics Limited, priority 2018, published 2021).

In experiment [1] the target is T1, Human HDAC4 (Homo sapiens, UniProt P56524).
T1 construct: amino acids 627-1085 with N-terminal GST tag; GST (N); host or cells: baculovirus expression system
Put plainly: HDAC4 biochemical assay, class IIa-specific substrate. The following applies: read-out: HDAC Isoform IC50 (nM) 4. In outline: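 GST-tagged human HDAC4 (aa 627-1085, baculovirus) at 0.004 ng/ul was incubated 30 min at room temperature with 50 μM class IIa-specific substrate BOC-Lys(trifluoroacetyl)-AMC in Tris-HCl pH 8.0 buffer with BSA, 1% DMSO. Developer then released AMC, read at 360/460 nm.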

Experiment [2] concerns the target T2, Human HDAC10 (Homo sapiens, UniProt Q969S8).
T2 construct: Human HDAC10 (a.a. 1-481); GST (N); His (C); host or cells: baculovirus expression system
T2 sequence (Q969S8 1-481): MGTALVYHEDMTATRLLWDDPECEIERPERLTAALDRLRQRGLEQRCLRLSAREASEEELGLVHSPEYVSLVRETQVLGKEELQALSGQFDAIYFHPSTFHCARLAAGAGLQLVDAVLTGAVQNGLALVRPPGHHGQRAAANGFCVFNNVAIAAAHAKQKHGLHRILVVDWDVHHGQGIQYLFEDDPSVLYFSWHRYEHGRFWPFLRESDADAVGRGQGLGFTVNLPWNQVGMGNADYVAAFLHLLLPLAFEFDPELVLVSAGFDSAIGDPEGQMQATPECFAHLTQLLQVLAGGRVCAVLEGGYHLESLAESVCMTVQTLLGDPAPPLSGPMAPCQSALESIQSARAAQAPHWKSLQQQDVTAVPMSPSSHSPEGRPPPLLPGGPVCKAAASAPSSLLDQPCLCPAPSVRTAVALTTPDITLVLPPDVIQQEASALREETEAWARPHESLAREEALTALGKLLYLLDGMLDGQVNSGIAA
Put plainly: HDAC10 biochemical assay, AMC-labeled peptide substrate. The note with it: read-out: HDAC Isoform IC50 (nM) 10. In outline:
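Baculovirus-expressed GST/His-tagged human HDAC10 (aa 1-481), 12 ng/ul, incubated with 50 μM RHKK(Ac)AMC in Tris pH 8.0 buffer with BSA and 1% DMSO, 2 h at 30 °C. Developer then releases AMC, read at 360/460 nm.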

Experiment [3] addresses T3, Human HDAC2 (Homo sapiens, UniProt Q92769).
T3 construct: full length with C-terminal GST-tag; GST (C); host or cells: baculovirus expression system
The experiment is described as follows: HDAC2 biochemical assay, AMC-labeled peptide substrate. The following applies: read-out: HDAC Isoform IC50 (nM) 2. Put shortly: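 Full-length human HDAC2 with C-terminal GST tag, baculovirus-expressed, at 0.07 ng/ul with 50 μM RHKK(Ac)AMC substrate in Tris-HCl pH8.0 buffer with BSA, 1% DMSO final. Incubated 1 hour at 30° C with compounds, then developer added; fluorescence read at 360/460 Ex/Em.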

The target of experiment [4] is T4, Human HDAC5 (Homo sapiens, UniProt Q9UQL6).
T4 construct: full length with C-terminal His tag, MW=51.1 kDa; His (C); host or cells: baculovirus expression system
Put plainly: HDAC5 biochemical assay, class IIa-specific substrate. The note with it: read-out: HDAC Isoform IC50 (nM) 5. Put shortly: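 Full-length C-terminal His-tagged HDAC5 from baculovirus (0.05 ng/ul) incubated 30 min at room temperature with 50 μM Boc-Lys(trifluoroacetyl)-AMC and compound, Tris pH 8.0 buffer with BSA, 1% DMSO. Developer then releases AMC; fluorescence 360/460 nm.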

The target of experiment [5] is T5, Human HDAC11 (Homo sapiens, UniProt Q96DB2).
T5 construct: Human HDAC11 (full length); His (N); host or cells: baculovirus expression system
T5 sequence (Q96DB2 1-347): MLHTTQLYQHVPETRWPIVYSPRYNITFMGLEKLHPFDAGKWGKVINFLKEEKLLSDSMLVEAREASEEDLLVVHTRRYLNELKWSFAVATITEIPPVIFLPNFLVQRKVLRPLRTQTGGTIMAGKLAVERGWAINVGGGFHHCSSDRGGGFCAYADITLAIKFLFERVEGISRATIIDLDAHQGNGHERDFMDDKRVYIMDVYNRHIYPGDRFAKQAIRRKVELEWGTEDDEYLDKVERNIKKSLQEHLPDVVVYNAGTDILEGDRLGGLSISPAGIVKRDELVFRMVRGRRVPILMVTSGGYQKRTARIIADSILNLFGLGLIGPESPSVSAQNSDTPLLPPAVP
The experiment is described as follows: HDAC11 biochemical assay, class IIa-specific substrate. The note with it: read-out: HDAC Isoform IC50 (nM) 11. Put shortly: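 Full-length N-His human HDAC11 from baculovirus, 5 ng/μl, incubated with 50 μM Boc-Lys(trifluoroacetyl)-AMC for 30 min at 30 °C. Buffer: 50 mM Tris-HCl pH 8.0, 137 mM NaCl, 2.7 mM KCl, 1 mM MgCl2, 1 mg/mL BSA, 1% DMSO. Developer releases AMC; fluorescence read at 360/460 nm.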

Experiment [6] has as its target T6, Human HDAC1 (Homo sapiens, UniProt Q13547).
T6 construct: full length with C-terminal His-tag and C-terminal FLAG-tag; His (C); FLAG (C); host or cells: baculovirus expression system
Put plainly: HDAC1 biochemical assay, AMC-labeled peptide substrate. The note with it: read-out: HDAC Isoform IC50 (nM) 1. In outline: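 Baculovirus-expressed full-length human HDAC1 with His and FLAG tags, 0.3 ng/ul, incubated 1 h at 30° C with compound and 50 μM RHKK(Ac)AMC in Tris pH 8.0 buffer with BSA and 1% DMSO. Developer then releases AMC from deacetylated substrate; fluorescence read at 360/460 nm.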

T1 sequence (P56524 627-1084 limits assumed): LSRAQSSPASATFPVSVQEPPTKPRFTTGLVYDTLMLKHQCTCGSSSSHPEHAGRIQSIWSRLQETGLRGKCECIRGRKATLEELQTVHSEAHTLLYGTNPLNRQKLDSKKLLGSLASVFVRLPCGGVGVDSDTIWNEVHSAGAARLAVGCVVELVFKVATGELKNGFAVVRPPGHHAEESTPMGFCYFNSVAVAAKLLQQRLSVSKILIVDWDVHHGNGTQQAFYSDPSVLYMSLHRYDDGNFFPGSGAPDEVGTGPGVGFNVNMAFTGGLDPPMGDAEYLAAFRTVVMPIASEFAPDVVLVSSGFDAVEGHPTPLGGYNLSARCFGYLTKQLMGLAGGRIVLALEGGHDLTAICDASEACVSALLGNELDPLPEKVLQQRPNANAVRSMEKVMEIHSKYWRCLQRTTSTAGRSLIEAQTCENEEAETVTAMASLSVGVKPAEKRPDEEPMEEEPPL
T3 sequence (Q92769 whole entry): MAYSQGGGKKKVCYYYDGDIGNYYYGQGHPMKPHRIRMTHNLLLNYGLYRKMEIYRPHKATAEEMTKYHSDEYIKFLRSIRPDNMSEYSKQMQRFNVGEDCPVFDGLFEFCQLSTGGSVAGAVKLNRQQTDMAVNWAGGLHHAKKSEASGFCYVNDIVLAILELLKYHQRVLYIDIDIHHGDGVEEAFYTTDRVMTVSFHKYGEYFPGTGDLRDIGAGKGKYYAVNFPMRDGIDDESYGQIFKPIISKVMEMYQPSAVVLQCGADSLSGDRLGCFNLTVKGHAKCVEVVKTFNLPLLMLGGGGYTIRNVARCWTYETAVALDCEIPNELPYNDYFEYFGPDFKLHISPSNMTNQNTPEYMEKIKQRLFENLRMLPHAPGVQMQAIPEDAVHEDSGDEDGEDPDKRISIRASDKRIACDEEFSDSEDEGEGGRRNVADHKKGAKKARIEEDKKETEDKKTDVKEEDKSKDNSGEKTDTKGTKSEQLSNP
T6 sequence (Q13547 whole entry): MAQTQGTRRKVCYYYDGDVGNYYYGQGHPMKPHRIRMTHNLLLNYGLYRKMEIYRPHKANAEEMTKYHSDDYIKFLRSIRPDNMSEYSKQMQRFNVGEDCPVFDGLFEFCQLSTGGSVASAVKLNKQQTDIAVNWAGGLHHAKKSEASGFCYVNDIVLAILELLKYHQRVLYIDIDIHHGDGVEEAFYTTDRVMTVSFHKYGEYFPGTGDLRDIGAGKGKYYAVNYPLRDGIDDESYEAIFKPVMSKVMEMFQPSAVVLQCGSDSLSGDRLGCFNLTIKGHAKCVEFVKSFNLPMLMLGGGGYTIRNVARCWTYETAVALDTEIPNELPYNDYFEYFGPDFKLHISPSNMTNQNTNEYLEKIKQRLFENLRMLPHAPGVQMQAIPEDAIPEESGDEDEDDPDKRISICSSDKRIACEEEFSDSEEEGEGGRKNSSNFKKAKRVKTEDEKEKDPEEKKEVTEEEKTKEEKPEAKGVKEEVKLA
T4 sequence (Q9UQL6 656-1122 limits assumed): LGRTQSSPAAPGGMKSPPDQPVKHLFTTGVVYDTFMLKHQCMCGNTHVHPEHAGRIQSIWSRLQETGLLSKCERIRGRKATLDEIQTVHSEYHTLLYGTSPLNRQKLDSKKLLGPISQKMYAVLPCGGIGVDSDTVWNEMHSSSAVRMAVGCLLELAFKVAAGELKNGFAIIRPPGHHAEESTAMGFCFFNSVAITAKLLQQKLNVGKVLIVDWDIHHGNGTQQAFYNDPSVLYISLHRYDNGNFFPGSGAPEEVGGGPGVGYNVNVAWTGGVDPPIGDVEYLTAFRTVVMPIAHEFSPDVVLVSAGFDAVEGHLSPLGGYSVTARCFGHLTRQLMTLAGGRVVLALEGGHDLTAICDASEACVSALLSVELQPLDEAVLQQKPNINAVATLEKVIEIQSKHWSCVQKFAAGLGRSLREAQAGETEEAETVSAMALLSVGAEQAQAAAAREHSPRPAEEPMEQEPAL

The IC50 is the concentration at which inhibition is half-maximal. For the compound `COc1cncc(N(Cc2ccc(-c3noc(C(F)(F)F)n3)s2)c2cnccn2)n1` [Example BQ, 6-Methoxy-N-(pyrazin-2-yl)-N-({5-[5-(trifluoromethyl)-1,2,4-oxadiazol-3-yl]thiophen-2-yl}methyl)pyrazin-2-amine], the IC50 was at most 10000 nM in experiment [1]; over 10000 nM in experiment [2]; over 10000 nM in experiment [3]; at most 1000 nM in experiment [4]; over 10000 nM in experiment [5]; over 10000 nM in experiment [6].
For the compound `FC(F)(F)c1nc(-c2ccc(CN(c3cnccn3)c3cnccn3)s2)no1` [Example BA, N-(Pyrazin-2-yl)-N-({5-[5-(trifluoromethyl)-1,2,4-oxadiazol-3-yl]thiophen-2-yl}methyl)pyrazin-2-amine], the IC50 was at most 1000 nM in experiment [1]; over 10000 nM in experiment [2]; over 10000 nM in experiment [3]; at most 1000 nM in experiment [4]; over 10000 nM in experiment [5]; over 10000 nM in experiment [6].
For `O=C(c1cnnc(N(Cc2ccc(-c3noc(C(F)(F)F)n3)s2)c2cnccn2)c1)N1CC[S+]([O-])CC1` [Example FU, 4-{6-[(Pyrazin-2-yl)({5-[5-(trifluoromethyl)-1,2,4-oxadiazol-3-yl]thiophen-2-yl}methyl)amino]pyridazine-4-carbonyl}-1lambda4-thiomorpholin-1-one], the half-maximal inhibitory concentration (IC50) in experiment [1] was at most 10000 nM; in experiment [2], over 10000 nM; in experiment [3] it was over 10000 nM; in experiment [4] it was at most 1000 nM; in experiment [5], over 10000 nM; in experiment [6] it was over 10000 nM.
Regarding `O=C(c1ccc(N(Cc2ccc(-c3noc(C(F)(F)F)n3)s2)c2cnccn2)nn1)N1CCOCC1` [Example DS, 6-(Morpholine-4-carbonyl)-N-(pyrazin-2-yl)-N-({5-[5-(trifluoromethyl)-1,2,4-oxadiazol-3-yl]thiophen-2-yl}methyl)pyridazin-3-amine], the IC50 was at most 500 nM in experiment [1]; over 10000 nM in experiment [2]; over 10000 nM in experiment [3]; at most 500 nM in experiment [4]; over 10000 nM in experiment [5]; over 10000 nM in experiment [6].
As for `FC(F)(F)c1cncc(N(Cc2ccc(-c3noc(C(F)(F)F)n3)s2)c2cnccn2)n1` [Example BR, N-(Pyrazin-2-yl)-6-(trifluoromethyl)-N-({5-[5-(trifluoromethyl)-1,2,4-oxadiazol-3-yl]thiophen-2-yl}methyl)pyrazin-2-amine], the IC50 was at most 10000 nM in experiment [1]; over 10000 nM in experiment [2]; over 10000 nM in experiment [3]; at most 10000 nM in experiment [4]; over 10000 nM in experiment [5]; over 10000 nM in experiment [6].
For `O=C(c1cnnc(N(Cc2ccc(-c3noc(C(F)(F)F)n3)s2)c2cnccn2)c1)N1C[C@@H]2C[C@H]1CO2` [Example FV, 5-[(1S,4S)-2-Oxa-5-azabicyclo[2.2.1]heptane-5-carbonyl]-N-(pyrazin-2-yl)-N-({5-[5-(trifluoromethyl)-1,2,4-oxadiazol-3-yl]thiophen-2-yl}methyl)pyridazin-3-amine], the half-maximal inhibitory concentration (IC50) is at most 10000 nM in experiment [1]; over 10000 nM in experiment [2]; over 10000 nM in experiment [3]; at most 1000 nM in experiment [4]; over 10000 nM in experiment [5]; over 10000 nM in experiment [6].
Regarding `O=C(c1cnnc(N(Cc2ccc(-c3noc(C(F)(F)F)n3)s2)c2cnccn2)c1)N1CC(C(F)F)C1` [Example GK, 5-[3-(Difluoromethyl)azetidine-1-carbonyl]-N-(pyrazin-2-yl)-N-({5-[5-(trifluoromethyl)-1,2,4-oxadiazol-3-yl]thiophen-2-yl}methyl)pyridazin-3-amine], the half-inhibitory concentration (IC50) in experiment [1] was at most 1000 nM; in experiment [2], over 10000 nM; in experiment [3], over 10000 nM; in experiment [4] it was at most 1000 nM; in experiment [5] it was over 10000 nM; in experiment [6] it was at most 10000 nM.
Consider `OC1(c2cnnc(N(Cc3ccc(-c4noc(C(F)(F)F)n4)s3)c3cnccn3)c2)COC1` [Example GW, 3-{6-[(Pyrazin-2-yl)({5-[5-(trifluoromethyl)-1,2,4-oxadiazol-3-yl]thiophen-2-yl}methyl)amino]pyridazin-4-yl}oxetan-3-ol], for which the IC50 in experiment [1] was at most 10000 nM; in experiment [2], over 10000 nM; in experiment [3], over 10000 nM; in experiment [4], at most 10000 nM; in experiment [5], over 10000 nM; in experiment [6], over 10000 nM.
As to `NC(=O)c1ccc(N(Cc2ccc(-c3noc(C(F)(F)F)n3)s2)c2cnccn2)nn1` [Example DQ, 6-[(Pyrazin-2-yl)({5-[5-(trifluoromethyl)-1,2,4-oxadiazol-3-yl]thiophen-2-yl}methyl)amino]pyridazine-3-carboxamide], the IC50 in experiment [1] was at most 500 nM; in experiment [2], over 10000 nM; in experiment [3], over 10000 nM; in experiment [4], at most 500 nM; in experiment [5], over 10000 nM; in experiment [6], at most 10000 nM.
On to `CN(C(=O)c1cnnc(N(Cc2ccc(-c3noc(C(F)(F)F)n3)s2)c2cnccn2)c1)S(C)(=O)=O` [Example GE, N-Methanesulfonyl-N-methyl-6-[(pyrazin-2-yl)({5-[5-(trifluoromethyl)-1,2,4-oxadiazol-3-yl]thiophen-2-yl}methyl)amino]pyridazine-4-carboxamide], for which the IC50 in experiment [1] was at most 10000 nM; in experiment [2] it was over 10000 nM; in experiment [3] it was over 10000 nM; in experiment [4], at most 1000 nM; in experiment [5], over 10000 nM; in experiment [6], over 10000 nM.
Take `O=C(c1cncc(N(Cc2ccc(-c3noc(C(F)(F)F)n3)s2)c2cnccn2)c1)N1CCOCC1` [Example GR, N-[5-(Morpholine-4-carbonyl)pyridin-3-yl]-N-({5-[5-(trifluoromethyl)-1,2,4-oxadiazol-3-yl]thiophen-2-yl}methyl)pyrazin-2-amine]: the IC50 in experiment [1] was at most 1000 nM; in experiment [2], over 10000 nM; in experiment [3] it was over 10000 nM; in experiment [4], at most 500 nM; in experiment [5], over 10000 nM; in experiment [6], over 10000 nM.
On to `FC(F)(F)c1nc(-c2ccc(CN(c3cnccn3)c3cc(N4CCCC4)cnn3)s2)no1` [Example FQ, N-(Pyrazin-2-yl)-5-(pyrrolidin-1-yl)-N-({5-[5-(trifluoromethyl)-1,2,4-oxadiazol-3-yl]thiophen-2-yl}methyl)pyridazin-3-amine], for which the half-maximal inhibitory concentration (IC50) was at most 10000 nM in experiment [1]; over 10000 nM in experiment [2]; over 10000 nM in experiment [3]; at most 1000 nM in experiment [4]; over 10000 nM in experiment [5]; over 10000 nM in experiment [6].
